Experiments:
[1] = Solubility of dabigatran (descriptive); type: physicochemical
[2] = Hygroscopicity of dabigatran (descriptive); type: physicochemical; conditions: leads to formation of different hydrated forms

Solubility [1]: sparingly soluble
Hygroscopicity [2]: hygroscopic
Compound: [H]/N=C(/N)c1ccc(NCc2nc3cc(C(=O)N(CCC(=O)O)c4ccccn4)ccc3n2C)cc1 [dabigatran]

— US9063163B2, “Lyophilised dabigatran” (Boehringer Ingelheim International GmbH, priority 2009, dated 2015)
